pIC50: −log10 of the molar value. Read-outs that look alike come from different tables or passages of the source.
Experiments:
[1] = test system: hematopoietic stem/progenitor cells (HSPCs); assay: HSPC mobilization into peripheral blood, colony forming unit (CFU) assay; settings: mice; for No. CFU (×10^3)/mL ± SD, 0.25 hr: 0.25 hr post dose (TABLE 5)
Method: HSPC mobilization. […] For those that dissolve in straight saline, a 0.2 mL dose, diluted with saline from the stock solution to provide the target dose (in mg/kg), was injected s.c. to each test mouse.
When doing combination studies with the VLA4 inhibitor plus a CXCR4 inhibitor and/or a CXCL2 agonist, the other agents were dosed as follows:
The CXCR4 inhibitor AMD3100 (Mozobil®, Genzyme, Cambridge, MA, USA) suspension was prepared in PBS and administered s.c. at a dose of 5 mg/kg.
Recombinant human CXCL2 (Groβt; R & D systems) was reconstituted in sterile Ca^+2/Mg^+2-free phosphate buffered saline (PBS) and injected subcutaneously (s.c.) at a dose of 2.5 mg/kg.
Colony forming unit (CFU) assay. Peripheral blood (PB) was drawn from the facial vein without anaesthesia into K/EDTA anti-coagulated tubes (Sarstedt AG & Co, NOmbrecht, Germany) at various time points post dosing of the test compounds. Red blood cells were removed from aliquots of blood using hypotonic lysis (Ammonium-Chloride-Potassium, ACK buffer, 5-10 min at RT) and samples were mixed with 2 mL mouse methylcellulose complete media, supplemented with a cocktail of recombinant cytokines (HS0007; R & D Systems, Minneapolis, USA). Cultures were plated in duplicate in 35 mm dishes and placed in a humidified chamber with 5% CO2 at 37° C. After 7 d of culture, colonies containing at least 50 cells were counted using an inverted microscope in a blinded fashion.

VLA-4 (a4b1) = VLA-4 (a4b1) (Homo sapiens (Human), UniProt P05556+P13612); assay: sVCAM flow cytometry cell-based assay (inhibition of soluble VCAM-1 binding to G2 ALL cells);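 further: compounds at 0.1 to 1000 nM preincubated 30 min with G2 ALL cells, then VCAM/Fc added for 30 min, bound VCAM-1 detected by PE secondary antibody, percent binding cells by flow cytometry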
Chain of VLA-4 (a4b1) (P13612 34-1032): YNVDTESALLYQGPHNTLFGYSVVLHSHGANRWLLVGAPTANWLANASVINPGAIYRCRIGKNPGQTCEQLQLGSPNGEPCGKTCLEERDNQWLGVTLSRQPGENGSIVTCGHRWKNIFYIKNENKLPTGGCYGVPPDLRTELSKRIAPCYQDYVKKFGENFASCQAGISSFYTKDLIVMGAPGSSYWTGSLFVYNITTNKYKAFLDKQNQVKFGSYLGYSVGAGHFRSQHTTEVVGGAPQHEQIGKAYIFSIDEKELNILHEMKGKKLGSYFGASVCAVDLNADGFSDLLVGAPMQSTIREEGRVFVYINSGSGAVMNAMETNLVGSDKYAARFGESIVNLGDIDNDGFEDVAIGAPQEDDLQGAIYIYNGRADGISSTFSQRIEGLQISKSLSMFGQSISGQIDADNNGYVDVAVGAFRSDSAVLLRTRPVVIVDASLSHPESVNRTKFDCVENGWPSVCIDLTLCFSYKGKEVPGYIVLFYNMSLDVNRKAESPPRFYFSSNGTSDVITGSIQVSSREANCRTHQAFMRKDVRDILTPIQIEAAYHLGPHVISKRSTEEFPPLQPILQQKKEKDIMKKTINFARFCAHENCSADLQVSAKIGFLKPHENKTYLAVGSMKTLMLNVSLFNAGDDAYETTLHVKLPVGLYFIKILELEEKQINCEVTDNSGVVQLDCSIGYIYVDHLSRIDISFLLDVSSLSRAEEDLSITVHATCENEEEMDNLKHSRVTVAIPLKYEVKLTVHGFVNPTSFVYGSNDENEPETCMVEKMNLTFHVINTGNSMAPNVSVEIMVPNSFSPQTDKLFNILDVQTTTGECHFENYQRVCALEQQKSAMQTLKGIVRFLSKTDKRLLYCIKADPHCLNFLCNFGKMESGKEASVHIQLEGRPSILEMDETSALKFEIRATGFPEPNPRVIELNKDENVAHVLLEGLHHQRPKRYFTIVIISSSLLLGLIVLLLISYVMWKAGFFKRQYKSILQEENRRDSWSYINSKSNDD
Chain of VLA-4 (a4b1) (P05556 21-798): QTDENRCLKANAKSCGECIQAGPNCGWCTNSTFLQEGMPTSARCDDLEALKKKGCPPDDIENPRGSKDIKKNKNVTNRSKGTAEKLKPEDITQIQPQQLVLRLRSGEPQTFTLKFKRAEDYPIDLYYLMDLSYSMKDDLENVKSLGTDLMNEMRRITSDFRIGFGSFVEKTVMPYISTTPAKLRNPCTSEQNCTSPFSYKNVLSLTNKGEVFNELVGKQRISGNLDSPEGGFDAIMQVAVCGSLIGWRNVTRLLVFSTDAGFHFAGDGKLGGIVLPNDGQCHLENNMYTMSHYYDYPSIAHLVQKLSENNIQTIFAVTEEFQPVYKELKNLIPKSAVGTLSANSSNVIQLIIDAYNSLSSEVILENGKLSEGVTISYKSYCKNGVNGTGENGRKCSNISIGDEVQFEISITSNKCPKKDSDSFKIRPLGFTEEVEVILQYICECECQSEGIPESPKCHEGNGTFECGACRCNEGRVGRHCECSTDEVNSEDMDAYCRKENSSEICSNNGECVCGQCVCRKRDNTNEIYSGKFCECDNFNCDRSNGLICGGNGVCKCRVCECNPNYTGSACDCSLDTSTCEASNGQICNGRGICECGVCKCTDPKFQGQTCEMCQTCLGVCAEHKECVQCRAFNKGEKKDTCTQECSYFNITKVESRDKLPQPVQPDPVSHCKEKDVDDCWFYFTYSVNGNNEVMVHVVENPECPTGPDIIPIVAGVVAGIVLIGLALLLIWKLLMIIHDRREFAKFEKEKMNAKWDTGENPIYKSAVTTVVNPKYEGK

[2] = inhibition of sVCAM-1 binding to human G2 ALL cells (TABLE 3), read-out: SVCAM-1, IC50
[3] = as listed in TABLE 5, read-out: sVCAM IC50
[4] = single s.c. injection, peripheral blood
[5] = single s.c. injection, peripheral blood, 2 hr post dose (TABLE 5)
[6] = single s.c. injection, peripheral blood, 4 hr post dose (TABLE 5)

c1cc(CN2CCCNCCNCCCNCC2)ccc1CN1CCCNCCNCCCNCC1 [AMD3100, plerixafor]
No. CFU (×10^3)/mL ± SD, 2 hr ([1]; single dose alone or in combination with AMD3100 (5 mg/kg s.c.), peripheral blood, 2 hr (TABLE 14)): 3.42 ± 1.42 (×10^3)/mL
No. CFU (×10^3)/mL ± SD, 3 hr ([1]; single dose alone or in combination with AMD3100 (5 mg/kg s.c.), peripheral blood, 3 hr (TABLE 14)): 5.08 ± 2.32 (×10^3)/mL
No. CFU (×10^3)/mL ± SD, 5 hr ([1]; single dose alone or in combination with AMD3100 (5 mg/kg s.c.), peripheral blood, 5 hr (TABLE 14)): 2.38 ± 0.73 (×10^3)/mL

O=C(O)[C@H](Cc1ccc(OC(=O)N2CCCC2)cc1)NC(=O)[C@@H]1CCCN1S(=O)(=O)c1ccccc1 [BOP, (N-benzenesulfonyl)-L-prolyl-L-O-(1-pyrrolidinylcarbonyl)tyrosine]
pIC50 (VLA-4 (a4b1); as listed in TABLE 13, for the VLA-4 inhibitor alone, read-out: sVCAM IC50): 7.33
pIC50 (VLA-4 (a4b1); [2]): 7.33
HSPC mobilization, result in words ([1]; single dose): rapid but transient mobilization of HSPCs but are returning to baseline by 2 hours

CN(C)c1ccc2c(c1)c(=O)n(-c1ccc(C[C@H](NC(=O)c3c(Cl)cccc3Cl)C(=O)O)cc1)c(=O)n2C [Carotegrast]
pIC50 (VLA-4 (a4b1); as listed in TABLE 20, read-out: sVCAM IC50): 6.93
pIC50 (VLA-4 (a4b1); [2]): 6.93
No. CFU (×10^3)/mL ± SD, 1 hr ([1]; single dose, peripheral blood, 1 hr post dose (TABLE 20)): 0.58 ± 0.19 (×10^3)/mL
No. CFU (×10^3)/mL ± SD, 4 hr ([1]; single dose, peripheral blood, 4 hr post dose (TABLE 20)): 0.18 ± 0.08 (×10^3)/mL
No. CFU (×10^3)/mL ± SD, 8 hr ([1]; single dose, peripheral blood, 8 hr post dose (TABLE 20)): 0.19 ± 0.09 (×10^3)/mL

COCCOCCOCCOCCOCCOCCOCCOCCOCCOCCOCCOCCOCCOCCOCCOCCOCCOCCOCCOCCOCCOCCOCCOCCSCc1cc(OC)c(-c2ccc(C[C@H](NC(=O)[C@@H]3CCCN3S(=O)(=O)c3cc(Cl)cc(Cl)c3)C(=O)O)cc2)c(OC)c1 [Example 7, (2S)-2-[[(2S)-1-(3,5-dichlorophenyl)sulfonylpyrrolidine-2-carbonyl]amino]-3-[4-[2,6-dimethoxy-4-[2-[2-[2-[2-[2-[2-[2-[2-[2-[2-[2-[2-[2-[2-[2-[2-[2-[2-[2-[2-[2-[2-[2-(2-thiomethylethoxy)ethoxy]ethoxy]ethoxy]ethoxy]ethoxy]ethoxy]ethoxy]ethoxy]ethoxy]ethoxy]ethoxy]ethoxy]ethoxy]ethoxy]ethoxy]ethoxy]ethoxy]ethoxy]ethoxy]ethoxy]ethoxy]ethoxy]ethoxymethyl]phenyl]phenyl]propanoic acid]
pIC50 (VLA-4 (a4b1); as listed in TABLE 11, read-out: sVCAM IC50): 8.87
pIC50 (VLA-4 (a4b1); [2]): 8.87
No. CFU (x10^3)/mL ± SD, 2 hr ([1]; single dose, peripheral blood, 2 hr post dose (TABLE 11)): 2.53 ± 1.11 (x10^3)/mL
No. CFU (x10^3)/mL ± SD, 4 hr ([1]; single dose, peripheral blood, 4 hr post dose (TABLE 11)): 3.91 ± 1.44 (x10^3)/mL
No. CFU (x10^3)/mL ± SD, 6 hr ([1]; single dose, peripheral blood, 6 hr post dose (TABLE 11)): 2.96 ± 1.15 (x10^3)/mL
No. CFU (x10^3)/mL ± SD, 24 hr ([1]; single dose, peripheral blood, 24 hr post dose (TABLE 11)): 0.15 ± 0.05 (x10^3)/mL

COc1cc(CO)cc(OC)c1-c1ccc(C[C@H](NC(=O)c2c(Cl)cc(C(=O)O)cc2Cl)C(=O)O)cc1 [Example C2]
pIC50 (VLA-4 (a4b1); [3]): 8.42
pIC50 (VLA-4 (a4b1); [2]): 8.42
No. CFU (×10^3)/mL ± SD, 0.25 hr [1, 4]: 4.08 ± 1.66 (×10^3)/mL
No. CFU (×10^3)/mL ± SD, 2 hr [1, 5]: 2.87 ± 1.47 (×10^3)/mL
No. CFU (×10^3)/mL ± SD, 4 hr [1, 6]: 0.53 ± 0.30 (×10^3)/mL

CCOCc1cc(OC)c(-c2ccc(C[C@H](NC(=O)c3c(Cl)cc(C(=O)O)cc3Cl)C(=O)O)cc2)c(OC)c1 [Example C3]
pIC50 (VLA-4 (a4b1); [3]): 8.87
pIC50 (VLA-4 (a4b1); [2]): 8.87
No. CFU (×10^3)/mL ± SD, 0.25 hr [1, 4]: 3.69 ± 0.52 (×10^3)/mL
No. CFU (×10^3)/mL ± SD, 2 hr [1, 5]: 1.58 ± 0.74 (×10^3)/mL
No. CFU (×10^3)/mL ± SD, 4 hr [1, 6]: 0.30 ± 0.11 (×10^3)/mL

COCCOCCOCCOCc1cc(OC)c(-c2ccc(C[C@H](NC(=O)c3c(Cl)cc(C(=O)O)cc3Cl)C(=O)O)cc2)c(OC)c1 [Example C4]
pIC50 (VLA-4 (a4b1); [3]): 8.77
pIC50 (VLA-4 (a4b1); as listed in TABLE 17, read-out: sVCAM IC50): 8.77
pIC50 (VLA-4 (a4b1); [2]): 8.77
time to which HSPC mobilization is extended after a single dose [1]: ≤ 2 h
No. CFU (×10^3)/mL ± SD, 2 hr ([1]; alone or in combination with Plerixafor and tGroβ, peripheral blood, 2 hr (TABLE 17)): 2.91 ± 0.83 (×10^3)/mL
No. CFU (×10^3)/mL ± SD, 4 hr ([1]; alone or in combination with Plerixafor and tGroβ, peripheral blood, 4 hr (TABLE 17)): 0.53 ± 0.16 (×10^3)/mL
No. CFU (×10^3)/mL ± SD, 6 hr ([1]; alone or in combination with Plerixafor and tGroβ, peripheral blood, 6 hr (TABLE 17)): 0.28 ± 0.09 (×10^3)/mL
No. CFU (×10^3)/mL ± SD, 0.25 hr [1, 4]: 4.73 ± 1.31 (×10^3)/mL
No. CFU (×10^3)/mL ± SD, 2 hr [1, 5]: 1.47 ± 0.51 (×10^3)/mL
No. CFU (×10^3)/mL ± SD, 4 hr [1, 6]: 0.49 ± 0.12 (×10^3)/mL

From US20250381168A1, “VLA4 INHIBITORS AND USES THEREOF” (Washington University, priority 2022, published 2025)
